Laboratory results: ChEMBL document CHEMBL1136456, “Synthesis and biological evaluation of benzazepine oxazolidinone antibacterials” (2003)
≈ marks a conversion by molar mass, not a printed value.

Assays:
Assay type in all cases: functional
Enterococcus faecalis = test: Antibacterial activity against Enterococcus faecalis UC9217 (E. f)
Haemophilus influenzae = test: Antibacterial activity against Haemophilus influenzae UC30063 (Haemophilus influenzae)
Staphylococcus aureus [1] = test: Antibacterial activity against Methicillin-suceptible Staphylococcus aureus UC9218
Streptococcus pneumoniae = test: Antibacterial activity against Streptococcus pneumoniae UC9912 (S.p)
[2] = test system: Staphylococcus epidermidis; test: Antibacterial activity against Methicillin-resistant Staphylococcus epidermidis UC12084 (S. e)
Moraxella catarrhalis = test: Antibacterial activity against Moraxella catarrhalis UC30610 (M. cat)
Mus musculus = test: Dose (administered orally) required to protect the Staphylococcus aureus infected mice was determined; details: po
Staphylococcus aureus [3] = test: Antibacterial activity against Methicillin-resistant Staphylococcus aureus UC6685 (S. a.)

Row | Compound | MIC (Enterococcus faecalis) | MIC (Haemophilus influenzae) | MIC (Staphylococcus aureus [1]) | MIC (Streptococcus pneumoniae) | MIC [2] | MIC (Moraxella catarrhalis) | ED50 (Mus musculus) | MIC (Staphylococcus aureus [3])
1 | CC(=O)NC[C@H]1CN(c2ccc3c(c2)CCCN(C(C)=O)C3)C(=O)O1 | 8 µg/mL (≈ 23.2 µM) | > 64 µg/mL | 8 µg/mL (≈ 23.2 µM) | 2 µg/mL (≈ 5.79 µM) | 4 µg/mL (≈ 11.6 µM) |  |  | 
2 | CC(=O)NC[C@H]1CN(c2ccc3c(c2)CCCN(C=O)C3)C(=O)O1 | 2 µg/mL (≈ 6.04 µM) | 32 µg/mL (≈ 96.6 µM) | 1 µg/mL (≈ 3.02 µM) | 1 µg/mL (≈ 3.02 µM) | 2 µg/mL (≈ 6.04 µM) | 4 µg/mL (≈ 12.1 µM) | 8.1 mg/kg/day | 1 µg/mL (≈ 3.02 µM)
3 | CC(=O)NC[C@H]1CN(c2ccc3c(c2)CCN(S(C)(=O)=O)CC3)C(=O)O1 | 32 µg/mL (≈ 83.9 µM) | 32 µg/mL (≈ 83.9 µM) | 16 µg/mL (≈ 41.9 µM) | 8 µg/mL (≈ 21 µM) | 16 µg/mL (≈ 41.9 µM) | > 64 µg/mL |  | 
4 | CC(=O)NC[C@H]1CN(c2ccc3c(c2)CCN(C(C)=O)CC3)C(=O)O1 | 2 µg/mL (≈ 5.79 µM) | 64 µg/mL (≈ 185 µM) | 4 µg/mL (≈ 11.6 µM) | 1 µg/mL (≈ 2.9 µM) | 1 µg/mL (≈ 2.9 µM) |  |  | 
5 | CC(=O)NC[C@H]1CN(c2ccc3c(c2)CCCCN3)C(=O)O1 | 64 µg/mL (≈ 211 µM) | > 64 µg/mL | 64 µg/mL (≈ 211 µM) | 16 µg/mL (≈ 52.7 µM) | 16 µg/mL (≈ 52.7 µM) | > 64 µg/mL |  | 32 µg/mL (≈ 105 µM)
6 | CC(=O)NC[C@H]1CN(c2ccc3c(c2)CCCN(C(=O)NC(C)C)C3)C(=O)O1 | 32 µg/mL (≈ 82.4 µM) | > 64 µg/mL | 64 µg/mL (≈ 165 µM) | 8 µg/mL (≈ 20.6 µM) | 32 µg/mL (≈ 82.4 µM) |  |  | 
7 | CC(=O)NC[C@H]1CN(c2ccc3c(c2)CCNCC3)C(=O)O1 | 32 µg/mL (≈ 105 µM) | > 64 µg/mL | 32 µg/mL (≈ 105 µM) | 8 µg/mL (≈ 26.4 µM) | 8 µg/mL (≈ 26.4 µM) | > 64 µg/mL |  | 64 µg/mL (≈ 211 µM)
8 | CC(=O)NC[C@H]1CN(c2ccc3c(c2)CCCCN3C(=O)CO)C(=O)O1 | 64 µg/mL (≈ 177 µM) | > 64 µg/mL | 64 µg/mL (≈ 177 µM) | 8 µg/mL (≈ 22.1 µM) | 8 µg/mL (≈ 22.1 µM) | > 64 µg/mL |  | 32 µg/mL (≈ 88.5 µM)
9 | CC(=O)NC[C@H]1CN(c2ccc3c(c2)CCCCN3C(=O)OCc2ccccc2)C(=O)O1 | > 64 µg/mL | > 64 µg/mL | > 64 µg/mL | > 64 µg/mL | > 64 µg/mL | > 64 µg/mL |  | 
10 | CC(=O)NC[C@H]1CN(c2ccc3c(c2)CCCN(C(=O)OCc2ccccc2)C3)C(=O)O1 | 32 µg/mL (≈ 73.1 µM) | > 64 µg/mL | 16 µg/mL (≈ 36.6 µM) | 8 µg/mL (≈ 18.3 µM) | 16 µg/mL (≈ 36.6 µM) |  |  | 
11 | COC(=O)N1CCCc2cc(N3C[C@H](CNC(C)=O)OC3=O)ccc2C1 | 4 µg/mL (≈ 11.1 µM) | > 64 µg/mL | 8 µg/mL (≈ 22.1 µM) | 2 µg/mL (≈ 5.53 µM) | 2 µg/mL (≈ 5.53 µM) |  |  | 
12 | CC(=O)NC[C@H]1CN(c2ccc3c(c2)CCCN(C(=O)CO)C3)C(=O)O1 | 4 µg/mL (≈ 11.1 µM) | 64 µg/mL (≈ 177 µM) | 4 µg/mL (≈ 11.1 µM) | 1 µg/mL (≈ 2.77 µM) | 1 µg/mL (≈ 2.77 µM) | 16 µg/mL (≈ 44.3 µM) |  | 4 µg/mL (≈ 11.1 µM)
13 | CC(=O)NC[C@H]1CN(c2ccc3c(c2)CCCCN3C=O)C(=O)O1 | 2 µg/mL (≈ 6.04 µM) | 16 µg/mL (≈ 48.3 µM) | 2 µg/mL (≈ 6.04 µM) | < 0.05 µg/mL | < 0.05 µg/mL | 4 µg/mL (≈ 12.1 µM) |  | 2 µg/mL (≈ 6.04 µM)
14 | CC(=O)NC[C@H]1CN(c2ccc3c(c2)CCN(C(=O)Cc2ccccc2)CC3)C(=O)O1 | 2 µg/mL (≈ 4.74 µM) | > 64 µg/mL | 4 µg/mL (≈ 9.49 µM) | 1 µg/mL (≈ 2.37 µM) | 1 µg/mL (≈ 2.37 µM) |  |  | 
15 | CC(=O)NC[C@H]1CN(c2ccc3c(c2)NCCCC3)C(=O)O1 | 32 µg/mL (≈ 105 µM) | > 64 µg/mL | 32 µg/mL (≈ 105 µM) | 8 µg/mL (≈ 26.4 µM) | 8 µg/mL (≈ 26.4 µM) | > 64 µg/mL |  | 16 µg/mL (≈ 52.7 µM)
16 | CC(=O)NC[C@H]1CN(c2ccc3c(c2)CCN(C(=O)CO)CC3)C(=O)O1 | 4 µg/mL (≈ 11.1 µM) | 32 µg/mL (≈ 88.5 µM) | 2 µg/mL (≈ 5.53 µM) | < 0.05 µg/mL | 1 µg/mL (≈ 2.77 µM) | 8 µg/mL (≈ 22.1 µM) | 8.5 mg/kg/day | 2 µg/mL (≈ 5.53 µM)
17 | CC(=O)NC[C@H]1CN(c2ccc3c(c2)CCN(C(=O)OCc2ccccc2)CC3)C(=O)O1 | 4 µg/mL (≈ 9.14 µM) | > 64 µg/mL | 4 µg/mL (≈ 9.14 µM) | < 0.05 µg/mL | 1 µg/mL (≈ 2.29 µM) | 16 µg/mL (≈ 36.6 µM) |  | 2 µg/mL (≈ 4.57 µM)
18 | CC(=O)NC[C@H]1CN(c2ccc3c(c2)CCN(C(=O)c2ccccc2)CC3)C(=O)O1 | 2 µg/mL (≈ 4.91 µM) | > 64 µg/mL | 8 µg/mL (≈ 19.6 µM) | 1 µg/mL (≈ 2.45 µM) | 1 µg/mL (≈ 2.45 µM) |  |  | 
19 | COC(=O)N1CCc2ccc(N3C[C@H](CNC(C)=O)OC3=O)cc2CC1 | 2 µg/mL (≈ 5.53 µM) | > 64 µg/mL | 4 µg/mL (≈ 11.1 µM) | 1 µg/mL (≈ 2.77 µM) | 1 µg/mL (≈ 2.77 µM) |  |  | 
20 | CC(=O)NC[C@H]1CN(c2ccc3c(c2)CCCNC3)C(=O)O1 | > 64 µg/mL | > 64 µg/mL | > 64 µg/mL | 8 µg/mL (≈ 26.4 µM) | 32 µg/mL (≈ 105 µM) | > 64 µg/mL |  | 
21 | CC(=O)NC[C@H]1CN(c2ccc3c(c2)N(C=O)CCCC3)C(=O)O1 | > 64 µg/mL | > 64 µg/mL | > 64 µg/mL | > 64 µg/mL | > 64 µg/mL | > 64 µg/mL |  | 
22 | CC(=O)NC[C@H]1CN(c2ccc3c(c2)CCCN(C(=O)Nc2ccccc2)C3)C(=O)O1 | 4 µg/mL (≈ 9.47 µM) | 64 µg/mL (≈ 151 µM) | 16 µg/mL (≈ 37.9 µM) | 1 µg/mL (≈ 2.37 µM) | 4 µg/mL (≈ 9.47 µM) |  |  | 
23 | CC(=O)NC[C@H]1CN(c2ccc3c(c2)CCCN(C(=O)Cc2ccccc2)C3)C(=O)O1 | 16 µg/mL (≈ 38 µM) | > 64 µg/mL | 32 µg/mL (≈ 75.9 µM) | 4 µg/mL (≈ 9.49 µM) | 8 µg/mL (≈ 19 µM) |  |  | 
24 | CC(=O)NC[C@H]1CN(c2ccc3c(c2)CCN(C=O)CC3)C(=O)O1 | 4 µg/mL (≈ 12.1 µM) | > 64 µg/mL | 4 µg/mL (≈ 12.1 µM) | < 0.05 µg/mL | < 0.05 µg/mL | 8 µg/mL (≈ 24.1 µM) |  | 2 µg/mL (≈ 6.04 µM)
25 | CC(=O)NC[C@H]1CN(c2ccc3c(c2)CCN(C(=O)Oc2ccccc2)CC3)C(=O)O1 | 4 µg/mL (≈ 9.45 µM) | > 64 µg/mL | 4 µg/mL (≈ 9.45 µM) | 2 µg/mL (≈ 4.72 µM) | 2 µg/mL (≈ 4.72 µM) |  |  | 
26 | CC(=O)NC[C@H]1CN(c2ccc3c(c2)CCCN(C(=O)NCCc2ccccc2)C3)C(=O)O1 | 32 µg/mL (≈ 71 µM) | > 64 µg/mL | 64 µg/mL (≈ 142 µM) | 8 µg/mL (≈ 17.8 µM) | 32 µg/mL (≈ 71 µM) |  |  | 
27 | CC(=O)NC[C@H]1CN(c2ccc(N3CCOCC3)c(F)c2)C(=O)O1 [LINEZOLID] |  | 16 µg/mL (≈ 47.4 µM) |  |  | 1 µg/mL (≈ 2.96 µM) | 8 µg/mL (≈ 23.7 µM) | 5.6 mg/kg/day | 
